We go through 3 compounds from publication PMC4457528, “Identification of Novel Small Molecule Inhibitors of Oncogenic RET Kinase” (PLoS ONE, 2015).

Like-named read-outs stand apart in the source and are kept apart here.

Holding throughout (test): KinomeScan kinase panel, single concentration 10 µM
Assay type in all cases: binding

Assay [1] deals with T1, KinomeScan kinase panel (Homo sapiens, UniProt O43318).
T1 construct: purchased DiscoveRx (KinomeScan)
T1 sequence (O43318 1-606): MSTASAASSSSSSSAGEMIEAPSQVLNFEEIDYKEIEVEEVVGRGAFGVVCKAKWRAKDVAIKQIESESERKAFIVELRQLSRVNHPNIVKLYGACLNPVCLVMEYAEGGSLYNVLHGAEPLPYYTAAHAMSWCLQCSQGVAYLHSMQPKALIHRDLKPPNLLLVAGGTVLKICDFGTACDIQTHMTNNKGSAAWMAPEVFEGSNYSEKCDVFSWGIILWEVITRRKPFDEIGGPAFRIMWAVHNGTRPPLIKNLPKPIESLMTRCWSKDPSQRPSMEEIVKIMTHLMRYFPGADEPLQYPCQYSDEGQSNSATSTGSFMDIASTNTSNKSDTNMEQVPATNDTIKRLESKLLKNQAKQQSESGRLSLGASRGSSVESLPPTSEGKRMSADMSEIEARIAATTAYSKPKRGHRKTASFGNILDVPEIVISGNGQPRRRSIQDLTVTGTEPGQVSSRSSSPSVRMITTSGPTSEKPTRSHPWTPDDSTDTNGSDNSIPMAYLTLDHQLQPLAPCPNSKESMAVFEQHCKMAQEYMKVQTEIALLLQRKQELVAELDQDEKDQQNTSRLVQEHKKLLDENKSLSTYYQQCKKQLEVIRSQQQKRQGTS
Conditions: read-out: score (%).

The target in assay [2] is T2, KinomeScan kinase panel (Homo sapiens, UniProt P00533).
T2 construct: purchased DiscoveRx (KinomeScan)
T2 sequence (P00533 25-1210): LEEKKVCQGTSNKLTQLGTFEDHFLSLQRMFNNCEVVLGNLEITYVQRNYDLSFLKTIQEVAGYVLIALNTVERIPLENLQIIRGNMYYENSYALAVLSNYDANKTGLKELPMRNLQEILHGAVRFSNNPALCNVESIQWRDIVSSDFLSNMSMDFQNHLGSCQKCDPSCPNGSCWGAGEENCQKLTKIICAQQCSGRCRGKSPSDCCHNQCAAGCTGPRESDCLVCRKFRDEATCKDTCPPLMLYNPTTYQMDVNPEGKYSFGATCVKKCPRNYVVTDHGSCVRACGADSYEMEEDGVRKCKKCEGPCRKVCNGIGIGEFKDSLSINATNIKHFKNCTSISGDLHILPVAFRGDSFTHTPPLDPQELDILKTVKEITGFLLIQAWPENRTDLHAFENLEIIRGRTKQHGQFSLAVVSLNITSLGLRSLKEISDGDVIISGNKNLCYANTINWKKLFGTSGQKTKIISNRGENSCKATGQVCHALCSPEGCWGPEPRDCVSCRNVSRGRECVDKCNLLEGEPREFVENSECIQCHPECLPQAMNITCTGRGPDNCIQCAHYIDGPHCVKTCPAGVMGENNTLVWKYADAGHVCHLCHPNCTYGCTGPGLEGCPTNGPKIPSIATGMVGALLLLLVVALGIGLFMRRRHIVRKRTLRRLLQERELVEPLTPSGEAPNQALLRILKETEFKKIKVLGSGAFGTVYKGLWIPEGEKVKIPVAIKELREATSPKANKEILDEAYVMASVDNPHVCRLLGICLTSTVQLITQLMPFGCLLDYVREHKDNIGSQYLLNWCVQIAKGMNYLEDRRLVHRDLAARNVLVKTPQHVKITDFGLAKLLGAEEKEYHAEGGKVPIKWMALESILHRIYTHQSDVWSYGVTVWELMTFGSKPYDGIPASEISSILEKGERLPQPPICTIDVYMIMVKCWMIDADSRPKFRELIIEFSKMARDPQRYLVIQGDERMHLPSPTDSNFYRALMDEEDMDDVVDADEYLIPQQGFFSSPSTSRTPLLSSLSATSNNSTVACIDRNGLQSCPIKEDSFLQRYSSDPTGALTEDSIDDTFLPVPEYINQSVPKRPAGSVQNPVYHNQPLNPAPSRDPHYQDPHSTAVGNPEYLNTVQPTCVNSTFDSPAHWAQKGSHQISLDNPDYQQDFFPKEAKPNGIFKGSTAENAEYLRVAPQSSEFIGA
Conditions: EGFR, 10 µM.

Assay [3] deals with T3, KinomeScan kinase panel (Homo sapiens, UniProt P00533, DEL746-750).
T3 construct: purchased DiscoveRx (KinomeScan)
T3 sequence (P00533 with tags, fused parts or gaps DEL746-750): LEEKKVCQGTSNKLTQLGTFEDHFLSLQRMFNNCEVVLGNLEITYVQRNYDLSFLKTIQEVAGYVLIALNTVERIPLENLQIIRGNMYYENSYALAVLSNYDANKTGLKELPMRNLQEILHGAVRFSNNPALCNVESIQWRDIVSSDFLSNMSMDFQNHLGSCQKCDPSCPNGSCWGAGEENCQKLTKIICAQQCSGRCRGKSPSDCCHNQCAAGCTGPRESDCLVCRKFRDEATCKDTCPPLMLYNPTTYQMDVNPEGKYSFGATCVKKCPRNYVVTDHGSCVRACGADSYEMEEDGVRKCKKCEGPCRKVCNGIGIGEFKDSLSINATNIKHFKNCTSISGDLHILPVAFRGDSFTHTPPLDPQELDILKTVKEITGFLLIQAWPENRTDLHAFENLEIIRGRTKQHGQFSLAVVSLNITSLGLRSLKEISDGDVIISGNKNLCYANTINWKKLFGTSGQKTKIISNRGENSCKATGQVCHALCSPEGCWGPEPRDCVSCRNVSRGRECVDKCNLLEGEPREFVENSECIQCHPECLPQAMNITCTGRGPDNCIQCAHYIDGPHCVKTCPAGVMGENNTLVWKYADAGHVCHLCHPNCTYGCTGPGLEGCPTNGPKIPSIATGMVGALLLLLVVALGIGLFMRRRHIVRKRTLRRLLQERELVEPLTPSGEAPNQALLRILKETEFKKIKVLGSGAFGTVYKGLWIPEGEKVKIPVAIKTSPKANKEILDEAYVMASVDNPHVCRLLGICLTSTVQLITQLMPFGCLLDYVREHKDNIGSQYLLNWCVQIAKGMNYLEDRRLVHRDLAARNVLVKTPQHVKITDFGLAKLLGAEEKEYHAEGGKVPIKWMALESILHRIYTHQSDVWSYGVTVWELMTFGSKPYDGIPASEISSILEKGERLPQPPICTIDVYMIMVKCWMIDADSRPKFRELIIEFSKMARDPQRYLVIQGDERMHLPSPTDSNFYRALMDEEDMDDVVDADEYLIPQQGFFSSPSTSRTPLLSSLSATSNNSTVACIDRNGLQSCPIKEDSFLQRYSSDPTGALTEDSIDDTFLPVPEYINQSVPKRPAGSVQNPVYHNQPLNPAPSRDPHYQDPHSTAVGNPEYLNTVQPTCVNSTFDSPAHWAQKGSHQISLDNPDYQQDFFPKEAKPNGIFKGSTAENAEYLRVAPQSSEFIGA

Assay [4] has as its target T4, KinomeScan kinase panel (Homo sapiens, UniProt P29376).
T4 construct: purchased DiscoveRx (KinomeScan)
Conditions: LTK, 10 µM; read-out: score (%).

Assay [5] has as its target T5, KinomeScan kinase panel (Homo sapiens, UniProt P46734).
T5 construct: purchased DiscoveRx (KinomeScan)
T5 sequence (P46734 1-347): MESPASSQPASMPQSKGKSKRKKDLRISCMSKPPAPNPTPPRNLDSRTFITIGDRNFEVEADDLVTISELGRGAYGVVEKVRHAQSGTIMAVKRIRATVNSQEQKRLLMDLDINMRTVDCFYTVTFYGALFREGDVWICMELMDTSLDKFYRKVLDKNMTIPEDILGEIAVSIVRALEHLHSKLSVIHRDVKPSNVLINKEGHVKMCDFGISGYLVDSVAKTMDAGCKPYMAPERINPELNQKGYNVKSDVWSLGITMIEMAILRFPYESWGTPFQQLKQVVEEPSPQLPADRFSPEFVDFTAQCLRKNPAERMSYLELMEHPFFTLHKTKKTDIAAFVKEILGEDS
Conditions: MEK3, 10 µM; read-out: score (%).

For assay [6], the target named is T6, KinomeScan kinase panel (Homo sapiens, UniProt Q15418).
T6 construct: purchased DiscoveRx (KinomeScan)
T6 sequence (Q15418 whole entry): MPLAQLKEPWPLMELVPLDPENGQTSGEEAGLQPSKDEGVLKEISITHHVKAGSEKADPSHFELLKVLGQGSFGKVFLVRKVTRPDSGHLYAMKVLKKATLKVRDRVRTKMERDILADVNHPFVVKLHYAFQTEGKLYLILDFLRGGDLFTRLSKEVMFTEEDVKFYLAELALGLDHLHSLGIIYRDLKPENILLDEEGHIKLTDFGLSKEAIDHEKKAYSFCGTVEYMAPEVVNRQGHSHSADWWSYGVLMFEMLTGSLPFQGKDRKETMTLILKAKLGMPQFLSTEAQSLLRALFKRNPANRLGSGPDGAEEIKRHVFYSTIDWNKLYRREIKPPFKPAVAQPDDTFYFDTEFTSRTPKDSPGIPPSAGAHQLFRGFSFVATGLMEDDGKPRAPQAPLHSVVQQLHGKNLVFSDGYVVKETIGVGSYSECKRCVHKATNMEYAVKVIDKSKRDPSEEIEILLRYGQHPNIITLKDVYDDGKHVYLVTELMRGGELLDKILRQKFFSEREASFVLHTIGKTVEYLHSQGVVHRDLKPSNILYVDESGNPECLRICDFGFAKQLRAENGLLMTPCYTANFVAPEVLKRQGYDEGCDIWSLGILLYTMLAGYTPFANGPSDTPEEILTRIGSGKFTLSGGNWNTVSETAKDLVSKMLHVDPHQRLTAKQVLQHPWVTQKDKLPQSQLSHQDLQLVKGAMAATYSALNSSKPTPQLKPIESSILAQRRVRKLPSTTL
Conditions: 10 µM, read-out: score (%).

Assay [7] deals with T7, KinomeScan kinase panel (Homo sapiens, UniProt Q86UE8).
T7 construct: purchased DiscoveRx (KinomeScan)
T7 sequence (Q86UE8 whole entry): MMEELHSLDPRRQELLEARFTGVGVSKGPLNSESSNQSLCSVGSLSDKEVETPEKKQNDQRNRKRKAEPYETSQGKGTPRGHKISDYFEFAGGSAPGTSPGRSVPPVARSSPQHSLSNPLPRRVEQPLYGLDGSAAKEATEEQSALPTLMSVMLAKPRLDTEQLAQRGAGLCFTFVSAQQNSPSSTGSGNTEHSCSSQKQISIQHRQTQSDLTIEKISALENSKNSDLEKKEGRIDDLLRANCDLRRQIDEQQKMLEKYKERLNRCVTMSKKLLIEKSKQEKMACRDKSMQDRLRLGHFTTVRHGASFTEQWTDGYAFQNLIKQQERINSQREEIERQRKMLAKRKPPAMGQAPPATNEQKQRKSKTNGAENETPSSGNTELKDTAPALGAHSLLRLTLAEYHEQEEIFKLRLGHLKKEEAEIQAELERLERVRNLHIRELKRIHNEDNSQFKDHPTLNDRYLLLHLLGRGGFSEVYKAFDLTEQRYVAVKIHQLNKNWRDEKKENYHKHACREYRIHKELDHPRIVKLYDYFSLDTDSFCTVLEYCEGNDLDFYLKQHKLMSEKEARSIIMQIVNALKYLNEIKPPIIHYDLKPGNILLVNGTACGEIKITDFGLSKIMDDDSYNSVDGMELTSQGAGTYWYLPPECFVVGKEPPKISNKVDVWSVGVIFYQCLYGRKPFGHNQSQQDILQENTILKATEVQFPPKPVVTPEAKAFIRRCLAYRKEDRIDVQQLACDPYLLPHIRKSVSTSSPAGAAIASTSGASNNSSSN
Conditions: read-out: score (%).

Assay [8] concerns the target T8, KinomeScan kinase panel (Homo sapiens, UniProt Q8WXR4).
T8 construct: purchased DiscoveRx (KinomeScan)
T8 sequence (Q8WXR4 1-1341): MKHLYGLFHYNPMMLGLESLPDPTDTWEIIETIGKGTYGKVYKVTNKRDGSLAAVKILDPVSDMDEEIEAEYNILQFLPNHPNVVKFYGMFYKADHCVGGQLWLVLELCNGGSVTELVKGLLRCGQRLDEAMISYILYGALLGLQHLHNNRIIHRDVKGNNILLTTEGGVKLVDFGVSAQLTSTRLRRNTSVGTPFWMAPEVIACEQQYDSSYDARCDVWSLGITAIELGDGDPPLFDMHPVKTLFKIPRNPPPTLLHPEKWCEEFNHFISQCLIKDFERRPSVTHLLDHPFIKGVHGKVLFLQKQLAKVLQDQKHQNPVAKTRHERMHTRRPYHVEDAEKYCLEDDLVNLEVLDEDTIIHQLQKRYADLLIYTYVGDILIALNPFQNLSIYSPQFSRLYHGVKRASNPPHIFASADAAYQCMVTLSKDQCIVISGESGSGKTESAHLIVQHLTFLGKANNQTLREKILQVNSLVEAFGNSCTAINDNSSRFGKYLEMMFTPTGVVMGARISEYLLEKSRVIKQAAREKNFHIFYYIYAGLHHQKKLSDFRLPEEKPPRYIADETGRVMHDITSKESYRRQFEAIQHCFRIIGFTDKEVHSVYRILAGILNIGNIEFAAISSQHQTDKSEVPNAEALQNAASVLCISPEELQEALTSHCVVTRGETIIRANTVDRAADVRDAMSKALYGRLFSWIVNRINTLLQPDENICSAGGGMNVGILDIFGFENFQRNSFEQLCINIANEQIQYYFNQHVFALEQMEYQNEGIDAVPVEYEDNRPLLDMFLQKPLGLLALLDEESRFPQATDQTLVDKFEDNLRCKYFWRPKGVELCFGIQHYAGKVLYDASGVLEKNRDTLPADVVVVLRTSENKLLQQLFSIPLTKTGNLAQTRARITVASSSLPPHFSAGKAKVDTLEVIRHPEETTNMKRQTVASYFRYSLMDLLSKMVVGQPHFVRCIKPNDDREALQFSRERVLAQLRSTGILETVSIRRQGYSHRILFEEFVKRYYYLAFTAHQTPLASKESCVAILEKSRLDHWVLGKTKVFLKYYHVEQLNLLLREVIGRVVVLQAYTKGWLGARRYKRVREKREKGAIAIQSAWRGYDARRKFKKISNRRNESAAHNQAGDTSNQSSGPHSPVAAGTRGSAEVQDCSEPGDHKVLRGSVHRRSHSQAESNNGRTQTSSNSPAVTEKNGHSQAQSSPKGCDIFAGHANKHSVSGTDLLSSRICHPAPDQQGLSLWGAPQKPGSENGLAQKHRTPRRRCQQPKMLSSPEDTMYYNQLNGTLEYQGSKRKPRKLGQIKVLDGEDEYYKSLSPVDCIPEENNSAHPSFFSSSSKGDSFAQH
Particulars: MYO3B, 10 µM; read-out: score (%).

For assay [9], the target named is T9, KinomeScan kinase panel (Homo sapiens, UniProt Q9H1R3).
T9 construct: purchased DiscoveRx (KinomeScan)
Conditions: MYLK2, 10 µM; read-out: score (%).

T4 sequence (P29376 17-864): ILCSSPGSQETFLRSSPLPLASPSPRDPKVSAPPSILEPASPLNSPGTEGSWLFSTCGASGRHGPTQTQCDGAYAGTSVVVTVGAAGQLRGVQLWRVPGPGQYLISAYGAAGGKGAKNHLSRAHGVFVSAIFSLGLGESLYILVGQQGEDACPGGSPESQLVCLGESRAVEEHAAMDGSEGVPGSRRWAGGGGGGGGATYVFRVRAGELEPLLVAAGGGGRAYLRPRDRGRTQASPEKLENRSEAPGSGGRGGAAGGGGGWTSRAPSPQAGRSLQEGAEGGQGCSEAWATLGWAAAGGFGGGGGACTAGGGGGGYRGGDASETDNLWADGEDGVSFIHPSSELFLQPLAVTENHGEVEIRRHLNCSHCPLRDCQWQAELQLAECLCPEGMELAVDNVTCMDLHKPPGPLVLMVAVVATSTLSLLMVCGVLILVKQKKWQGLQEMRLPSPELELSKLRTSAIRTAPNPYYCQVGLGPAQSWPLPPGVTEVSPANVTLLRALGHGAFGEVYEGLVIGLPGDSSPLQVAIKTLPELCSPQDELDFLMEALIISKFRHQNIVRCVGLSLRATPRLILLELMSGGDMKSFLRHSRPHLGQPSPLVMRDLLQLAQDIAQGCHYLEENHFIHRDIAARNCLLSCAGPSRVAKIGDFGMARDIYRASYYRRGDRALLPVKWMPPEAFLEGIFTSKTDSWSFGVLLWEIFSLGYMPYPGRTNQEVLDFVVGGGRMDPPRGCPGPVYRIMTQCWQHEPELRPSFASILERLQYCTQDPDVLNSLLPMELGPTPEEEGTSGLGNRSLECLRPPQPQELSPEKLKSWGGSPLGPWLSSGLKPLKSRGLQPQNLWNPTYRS

Regarding `CCN1CCN(Cc2ccc(NC(=O)c3ccc(C)c(NC(=O)c4cncc(-c5cccs5)c4)c3)cc2C(F)(F)F)CC1` [ALW-II-41-27], the remaining binding at 10 µM on KinomeScan kinase panel [1] (kinase TAK1, 10 µM) was 0%; at KinomeScan kinase panel [4], > 30%; at KinomeScan kinase panel [5] it was > 30%; on KinomeScan kinase panel [6] (RPS6KA1(Kin.Dom.1-N-terminal)), > 30%; at KinomeScan kinase panel [6] (RPS6KA1(Kin.Dom.2-C-terminal)), > 30%; on KinomeScan kinase panel [7] (kinase TLK2, 10 µM) it was > 30%. For the same compound, the remaining binding at 10 µM on KinomeScan kinase panel [8] and at KinomeScan kinase panel [9] was > 30% in each case. The “score (%)” value on KinomeScan kinase panel [2] was found to be 1.3%; on KinomeScan kinase panel [3], 1.2%.
`CCN1CCN(Cc2ccc(NC(=O)c3ccc(C)c(/C=C/c4cnc5[nH]ccc5c4Cl)c3)cc2C(F)(F)F)CC1` [HG-6-63-01, (E)-3-(2-(4-chloro-1H-pyrrolo[2,3-b]pyridin-5-yl)vinyl)-N-(4-((4-ethylpiperazin-1-yl)methyl)-3-(trifluoromethyl)phenyl)-4-methylbenzamide]: the remaining binding at 10 µM was 0.1% at KinomeScan kinase panel [1] (TAK1, 10 µM); > 30% on KinomeScan kinase panel [4]; > 30% at KinomeScan kinase panel [5]; > 30% on KinomeScan kinase panel [6] (RPS6KA1(Kin.Dom.1)); > 30% at KinomeScan kinase panel [6] (RPS6KA1(Kin.Dom.2)); > 30% on KinomeScan kinase panel [7] (TLK2, 10 µM). In addition, the remaining binding at 10 µM on KinomeScan kinase panel [8] was 30%; on KinomeScan kinase panel [9], 0.25%. Further, the “score (%)” value on KinomeScan kinase panel [2] stood at 0.3%; on KinomeScan kinase panel [3] (EGFR(E746-A750del), 10 µM), 0.9%.
Regarding `CCN1CCN(Cc2ccc(NC(=O)c3ccc(C)c(C#Cc4cccnc4)c3)cc2C(F)(F)F)CC1` [XMD15-44], the remaining binding at 10 µM is 0.2% at KinomeScan kinase panel [1] (kinase TAK1, 10 µM); 4.5% at KinomeScan kinase panel [4]; > 30% on KinomeScan kinase panel [5]; 53% at KinomeScan kinase panel [6] (kinase RSK1(Kin.Dom.1-N-terminal)); 7.2% at KinomeScan kinase panel [6] (kinase RSK1(Kin.Dom.2-C-terminal)); 100% at KinomeScan kinase panel [7] (kinase TLK2, 10 µM). For the same compound, the remaining binding at 10 µM at KinomeScan kinase panel [8] turned out to be 0%; at KinomeScan kinase panel [9] it was 3.4%. Also, the “score (%)” value amounted to 3% at KinomeScan kinase panel [2] and 1.8% on KinomeScan kinase panel [3] (EGFR(E746-A750del), 10 µM).
